Results taken from PubChem BioAssay (NCI).
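Briefly, cells in 96-well plates were exposed to five compound concentrations for 48 h, and endpoints were estimated by linear interpolation. At the GI50, growth is halved. Definition used: TGI = concentration required for complete inhibition of growth.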

Legend:
Experiment in all cases: DTP human tumour cell line panel, 48 h
[1] = test system: HOP-62 NSCLC
[2] = test system: TK-10 renal
[3] = test system: SK-MEL-5 melanoma
[4] = test system: MDA-MB-468 breast
[5] = test system: EKVX NSCLC
[6] = test system: M14 melanoma
[7] = test system: OVCAR-4 ovarian
[8] = test system: UO-31 renal
[9] = test system: NCI-H522 lung
[10] = test system: IGROV1 ovarian
[11] = test system: A498 renal
[12] = test system: MDA-MB-231 breast
[13] = test system: MALME-3M melanoma
[14] = test system: T-47D breast
[15] = test system: U251 CNS
[16] = test system: LOX IMVI melanoma
[17] = test system: A549 NSCLC
[18] = test system: SF-295 CNS
[19] = test system: HCT-15 colon
[20] = test system: HT29 colon
[21] = test system: OVCAR-8 ovarian
[22] = test system: ACHN renal
[23] = test system: SK-OV-3 ovarian
[24] = test system: NCI/ADR-RES ovarian
[25] = test system: 786-0 renal
[26] = test system: MDA-MB-435
[27] = test system: DU-145 prostate
[28] = test system: RXF 393 renal
[29] = test system: RPMI-8226 leukemia
[30] = test system: SNB-19 CNS
[31] = test system: HOP-92 NSCLC
[32] = test system: HS 578T breast
[33] = test system: CAKI-1 renal
[34] = test system: SK-MEL-2 melanoma
[35] = test system: HCT-116 colon
[36] = test system: MOLT-4 leukemia
[37] = test system: HCC-2998 colon
[38] = test system: PC-3 prostate
[39] = test system: SW-620 colon
[40] = test system: OVCAR-5 ovarian
[41] = test system: SF-539 CNS
[42] = test system: NCI-H23 lung
[43] = test system: SK-MEL-28 melanoma
[44] = test system: UACC-62 melanoma
[45] = test system: K-562 leukemia
[46] = test system: OVCAR-3 ovarian
[47] = test system: NCI-H226 lung
[48] = test system: KM12 colon
[49] = test system: SR leukemia
[50] = test system: SF-268 CNS
[51] = test system: CCRF-CEM leukemia
[52] = test system: COLO 205 colon
[53] = test system: SN12C renal
[54] = test system: MCF7 breast
[55] = test system: UACC-257 melanoma
[56] = test system: HL-60(TB) leukemia
[57] = test system: BT-549 breast
[58] = test system: SNB-75 CNS
[59] = test system: NCI-H460 lung

With `COc1ccc(Nc2nc(N)n(Cc3cccc(Br)c3)n2)cc1` the GI50 [1] was > 100 µM, the TGI [1] was > 100 µM and the GI50 [2] was 61.7 µM. The TGI [2] was > 100 µM, the GI50 [3] was 19.5 µM and the TGI [3] was 44 µM. For the same compound, the GI50 [4] was 19.3 µM, the TGI [4] was 65.5 µM and the GI50 [5] was 18 µM. The TGI [5] was > 100 µM, the GI50 [6] was 36.8 µM and the TGI [6] was > 100 µM. The GI50 [7] was 31.7 µM, the TGI [7] was > 100 µM and the GI50 [8] was 17 µM. The TGI [8] was > 100 µM, the GI50 [9] was 26.5 µM and the TGI [9] was > 100 µM. For the same compound, the GI50 [10] was 26.1 µM, the TGI [10] was > 100 µM and the GI50 [11] was 15.9 µM. The TGI [11] was 76.4 µM, the GI50 [12] was 37.1 µM and the TGI [12] was > 100 µM. The GI50 [13] was 27.2 µM, the TGI [13] was > 100 µM and the GI50 [14] was 44.5 µM. The TGI [14] was > 100 µM, the GI50 [15] was 42.1 µM and the TGI [15] was > 100 µM. For the same compound, the GI50 [16] was 31.5 µM, the TGI [16] was > 100 µM and the GI50 [17] was 36 µM. For the same compound, the TGI [17] was > 100 µM, the GI50 [18] was 28 µM and the TGI [18] was > 100 µM. For the same compound, the GI50 [19] was 30.8 µM, the TGI [19] was > 100 µM and the GI50 [20] was 64.2 µM. The TGI [20] was > 100 µM, the GI50 [21] was 42.1 µM and the TGI [21] was > 100 µM. The GI50 [22] was 29.7 µM, the TGI [22] was > 100 µM and the GI50 [23] was 93.2 µM. The TGI [23] was > 100 µM, the GI50 [24] was 33.3 µM and the TGI [24] was > 100 µM. For the same compound, the GI50 [25] was 34.3 µM, the TGI [25] was > 100 µM and the GI50 [26] was 32.8 µM. The TGI [26] was > 100 µM, the GI50 [27] was 65.6 µM and the TGI [27] was > 100 µM. The GI50 [28] was 14.3 µM, the TGI [28] was 66 µM and the GI50 [29] was 29.5 µM. The TGI [29] was > 100 µM, the GI50 [30] was 48.3 µM and the TGI [30] was > 100 µM. For the same compound, the GI50 [31] was 11.4 µM, the TGI [31] was 68.4 µM and the GI50 [32] was 15.4 µM. For the same compound, the TGI [32] was > 100 µM, the GI50 [33] was 15 µM and the TGI [33] was > 100 µM. For the same compound, the GI50 [34] was 31.1 µM, the TGI [34] was > 100 µM and the GI50 [35] was 27.5 µM. The TGI [35] was > 100 µM, the GI50 [36] was 26.9 µM and the TGI [36] was > 100 µM. The GI50 [37] was 34.3 µM, the TGI [37] was > 100 µM and the GI50 [38] was 25.9 µM. For the same compound, the TGI [38] was > 100 µM, the GI50 [39] was 57.5 µM and the TGI [39] was > 100 µM. The GI50 [40] was 50.3 µM, the TGI [40] was > 100 µM and the GI50 [41] was 29.6 µM. The TGI [41] was > 100 µM, the GI50 [42] was 32.7 µM and the TGI [42] was > 100 µM. The GI50 [43] was 35.7 µM, the TGI [43] was > 100 µM and the GI50 [44] was 32.8 µM. For the same compound, the TGI [44] was > 100 µM, the GI50 [45] was 28.7 µM and the TGI [45] was > 100 µM. The GI50 [46] was 35.8 µM, the TGI [46] was > 100 µM and the GI50 [47] was 27.2 µM. The TGI [47] was > 100 µM, the GI50 [48] was 26.7 µM and the TGI [48] was > 100 µM. For the same compound, the GI50 [49] was 91.7 µM, the TGI [49] was > 100 µM and the GI50 [50] was 27.2 µM. The TGI [50] was > 100 µM, the GI50 [51] was 26.3 µM and the TGI [51] was > 100 µM. The GI50 [52] was 48.4 µM, the TGI [52] was > 100 µM and the GI50 [53] was 33.4 µM. The TGI [53] was > 100 µM, the GI50 [54] was 26 µM and the TGI [54] was > 100 µM. The GI50 [55] was 38.3 µM, the TGI [55] was > 100 µM and the GI50 [56] was 18.4 µM. For the same compound, the TGI [56] was > 100 µM, the GI50 [57] was 14.5 µM and the TGI [57] was > 100 µM. For the same compound, the GI50 [58] was 13.9 µM, the TGI [58] was > 100 µM and the GI50 [59] was 36.2 µM. For the same compound, the TGI [59] was > 100 µM.

Work on `Cn1cc(-c2cc(N)n3nc(-c4c[nH]c5ccccc45)cc3n2)c2ccccc21` yielded a GI50 [1] of 3.09 µM, a TGI [1] of 10.5 µM and a GI50 [2] of 2.15 µM. It also gave a TGI [2] of 7.17 µM, a GI50 [3] of 1.77 µM and a TGI [3] of 3.43 µM. It also gave a GI50 [4] of 1.63 µM, a TGI [4] of 3.11 µM and a GI50 [5] of 2.48 µM. It also gave a TGI [5] of 7.15 µM, a GI50 [6] of 1.79 µM and a TGI [6] of 3.66 µM. It also gave a GI50 [7] of 3.26 µM, a TGI [7] of 14.7 µM and a GI50 [8] of 1.64 µM. It also gave a TGI [8] of 3.28 µM, a GI50 [9] of 1.69 µM and a TGI [9] of 3.33 µM. It also gave a GI50 [10] of 2.64 µM, a TGI [10] of 6.84 µM and a GI50 [11] of 7.63 µM. The TGI [11] was 20.8 µM, the GI50 [12] was 1.9 µM and the TGI [12] was 3.47 µM. For the same compound, the GI50 [13] was 1.56 µM, the TGI [13] was 2.9 µM and the GI50 [14] was 2.02 µM. For the same compound, the TGI [14] was 4.58 µM, the GI50 [15] was 2.04 µM and the TGI [15] was 4.04 µM. The GI50 [16] was 1.81 µM, the TGI [16] was 3.25 µM and the GI50 [17] was 3.01 µM. For the same compound, the TGI [17] was 12 µM, the GI50 [18] was 1.78 µM and the TGI [18] was 3.4 µM. For the same compound, the GI50 [19] was 1.64 µM, the TGI [19] was 3.3 µM and the GI50 [20] was 1.69 µM. For the same compound, the TGI [20] was 3.23 µM, the GI50 [21] was 2.66 µM and the TGI [21] was 8.25 µM. It also gave a GI50 [22] of 2.22 µM, a TGI [22] of 4.85 µM and a GI50 [23] of 11.8 µM. It also gave a TGI [23] of 25.6 µM, a GI50 [24] of 2.65 µM and a TGI [24] of 7.75 µM. For the same compound, the GI50 [25] was 1.68 µM, the TGI [25] was 3.26 µM and the GI50 [26] was 1.92 µM. For the same compound, the TGI [26] was 3.92 µM, the GI50 [27] was 3.61 µM and the TGI [27] was 13.5 µM. The GI50 [28] was 1.69 µM, the TGI [28] was 3.96 µM and the GI50 [29] was 2.51 µM. For the same compound, the TGI [29] was 6.95 µM, the GI50 [30] was 3.14 µM and the TGI [30] was 11.4 µM. The GI50 [31] was 2.29 µM, the TGI [31] was 5.47 µM and the GI50 [32] was 5.53 µM. For the same compound, the TGI [32] was 45.4 µM, the GI50 [33] was 1.91 µM and the TGI [33] was 4.48 µM. The GI50 [34] was 4.72 µM, the TGI [34] was 17.2 µM and the GI50 [35] was 1.9 µM. It also gave a TGI [35] of 3.54 µM, a GI50 [36] of 2.5 µM and a TGI [36] of 8.28 µM. The GI50 [37] was 1.79 µM, the TGI [37] was 3.34 µM and the GI50 [38] was 3.38 µM. For the same compound, the TGI [38] was 14.4 µM, the GI50 [39] was 1.77 µM and the TGI [39] was 3.45 µM. For the same compound, the GI50 [40] was 2.05 µM, the TGI [40] was 4.64 µM and the GI50 [41] was 1.81 µM. It also gave a TGI [41] of 3.21 µM, a GI50 [42] of 2.36 µM and a TGI [42] of 5.83 µM. The GI50 [43] was 1.66 µM, the TGI [43] was 3.03 µM and the GI50 [44] was 1.74 µM. It also gave a TGI [44] of 3.17 µM, a GI50 [45] of 2.34 µM and a TGI [45] of 6.81 µM. The GI50 [46] was 2.1 µM, the TGI [46] was 4.59 µM and the GI50 [47] was 11.4 µM. For the same compound, the TGI [47] was 37.2 µM, the GI50 [48] was 1.94 µM and the TGI [48] was 3.99 µM. The GI50 [49] was 2.01 µM, the TGI [49] was 39 µM and the GI50 [50] was 4.25 µM. It also gave a TGI [50] of 20.6 µM, a GI50 [51] of 2.77 µM and a TGI [51] of 24 µM. The GI50 [52] was 1.72 µM, the TGI [52] was 3.35 µM and the GI50 [53] was 3.47 µM. The TGI [53] was 12.4 µM, the GI50 [54] was 1.81 µM and the TGI [54] was 3.78 µM. It also gave a GI50 [55] of 1.84 µM, a TGI [55] of 3.45 µM and a GI50 [56] of 1.99 µM. It also gave a TGI [56] of 5.08 µM, a GI50 [57] of 14.8 µM and a TGI [57] of 29.8 µM. It also gave a GI50 [58] of 7.65 µM, a TGI [58] of 21.3 µM and a GI50 [59] of 1.95 µM. It also gave a TGI [59] of 3.83 µM.
